Where a name gives a salt, the structure may show the parent alone. Read-outs that look alike come from different tables or passages of the source. Non-standard residues stand in square brackets, D forms with d. Residues, ends and D or L forms follow the SMILES beside them. *: point of attachment. NH(4-picolyl) = c1cc(CN*)ccn1; dNle = CCCC[C@@H](N)C(=O)O
Assays:
[1] = Urinary excretion of CR665 after single IV infusion in human subjects; type: in vivo; conditions: for CL renal / dose excreted: human; for CL renal: urine and plasma, read-out: CLR 0-24 h; for dose excreted / Ae0-24 h: urine; for dose excreted: iv
Procedure: The lower limit of quantification was 1 ng/mL.
Urine was collected into standard weight polyethylene containers over the following time intervals: Pre dose (−24 to 0), 0 to 4, 4 to 8, 8 to 12, 12 to 24 and 24 to 48 hours after the start of the infusion. During each collection period, the containers were stored in a refrigerator at 2 to 8° C. The weight (g) of each collection was recorded prior to removal of two sub samples (each approximately 4 mL) into suitably labeled polypropylene containers, which were stored within 2 hours of collection, at approximately −20° C. Additional aliquots (1×100 mL per collection period) were stored for possible future analyses. Any remaining urine from post dose collection intervals was pooled with the rest of the urine collected during the 0 to 24 hour collection period, for analysis of creatinine clearance. A nominal value for specific gravity of 1.018 was used to calculate urine volume.

[2] = Safety and tolerability of ascending single IV doses in human subjects; type: in vivo
Description: In each group, subjects received CR665 or placebo.
The condition of each subject was monitored throughout the study.
Subjects were also encouraged to spontaneously report adverse events occurring at any other time during the study. Any adverse events and remedial action required were to be recorded for each subject. The nature, time of onset, duration and severity were documented, together with the Project Physician's opinion of the relationship to drug administration.
The condition of the dosing cannula site for each subject was monitored for erythema, pruritus and swelling at the following times: Pre dose, 0.5, 1, 2 and 24 hours after the start of the infusion. Subjects were also encouraged to spontaneously report adverse events relating to the infusion site at any other time during the study. Any adverse events and observations relating to the infusion site and remedial action required were to be recorded for each subject. The nature, time of onset, duration, and severity were to be documented, together with the Project Physician's opinion of the relationship to drug administration.
Supine and standing blood pressure, supine pulse rate and oral body temperature were measured in duplicate at the following times: Day 1; Pre dose, 15 minutes (Part B only), 30 minutes, 55 minutes, 1.5, 2, 2.5, 3, 4, 8, 12, 24 and 48 hours after the start of the infusion (up to 24 hours only for Groups A1 to A4); and at Follow up visit. Supine vital signs only were measured during the infusion period. Pre dose blood pressure and pulse rate were measured in triplicate at approximately 2 minute intervals. The median value was used as the baseline value in the data analysis. All subsequent measurements were performed singly, but repeated in duplicate if outside the relevant clinical reference ranges. If repeated, the median of the three values were used in the data analysis. Blood pressure and pulse rate were measured using automated Critikon Dinamap™ PRO 400 monitors. Subjects were required to be supine for at least 5 minutes before blood pressure and pulse rate measurements. Standing blood pressure and pulse rate were then measured singly after the subject had been sitting for approximately 1 minute and then standing for approximately 2 minutes. Oral body temperature was measured singly using an Omron digital thermometer. To assess drug effects on cardiovascular function, a 12 lead resting ECG with a 10 second rhythm strip was recorded on a Marquette MAC5000 ECG machine at the following times, after the subject has been supine for at least 5 minutes: Day 1; Pre dose, 50 minutes, 2, 4, 8, 24 and 48 hours after the start of the infusion (up to 24 hours only for Groups A1 to A4); and at the follow up visit. The ECG machine computed the PR, QT and QTc intervals, QRS duration, and heart rate. The QT interval was corrected for heart rate (QTc) using Bazett's formula. For continuous ECG measurements, continuous cardiac Holter monitoring of each subject, using Reynolds Tracker II Holter monitors, was performed from 1 hour prior to until 4 hours after the start of the infusion. Blood and urine samples were collected, after at least a 6 hour fast, for clinical laboratory evaluations at the following times during the study: Pre dose and 24 hours after the start of the infusion; and at the follow up visit.
After collection of urine samples, following removal of the aliquots for drug assay and/or urinalysis, urine was pooled over the following time intervals: 24 to 0 hours and 0 to 24 hours after the start of the infusion. A 10 mL aliquot was removed from the each pooled collection for determination of urinary creatinine.
An assessment of fluid balance (made by comparison of volume of fluid consumed and volume of fluid excreted) was made over the following periods: 24 to 0 hours and 0 to 24 hours after the start of the infusion. During these periods, the volume of fluid consumed and the volume of urine excreted was recorded. […]

SMILES: CCCC[C@@H](NC(=O)[C@@H](Cc1ccccc1)NC(=O)[C@H](N)Cc1ccccc1)C(=O)N[C@H](CCCNC(=N)N)C(=O)NCc1ccncc1 [CR665, D-phenylalanyl-D-phenylalanyl-D-norleucyl-N-(4-pyridinylmethyl)-D-argininamide, acetate salt] (H-[dF][dF][dNle][dR]-{NH(4-picolyl)})
- CL renal ([1]; female, females, 0.06 mg/kg, 5-minute IV infusion, geometric mean): 20.9 mL/min
- CL renal ([1]; female, females, 0.24 mg/kg, 1 hour IV infusion, geometric mean): 16.8 mL/min
- dose excreted ([1]; female, 0.06 mg/kg, females, 0.06 mg/kg, 5-minute IV infusion, geometric mean, read-out: fe0-24 h): 3.83%
- dose excreted ([1]; female, 0.06 mg/kg, females, 5-minute infusion, read-out: Fraction of unchanged drug excreted in the urine): 3.8%
- dose excreted ([1]; female, 0.06 mg/kg, females, 5-minute infusion, read-out: fe0-24 h, geometric least squares mean): 3.83%
- dose excreted ([1]; female, 0.24 mg/kg, females, 0.24 mg/kg, 1 hour IV infusion, geometric mean, read-out: fe0-24 h): 3.02%
- dose excreted ([1]; female, 0.24 mg/kg, females, 1-hour infusion, read-out: fe0-24 h, geometric least squares mean): 2.7%
- fe0-24 h, ratio of geometric least squares means 5-minute:1-hour ([1]; females): 1.42
- Ae0-24 h ([1]; females, 0.06 mg/kg, 5-minute IV infusion, geometric mean): 153 µg
- Ae0-24 h ([1]; females, 0.24 mg/kg, 1 hour IV infusion, geometric mean): 446 µg
- CL renal ([1]; male, males, 0.03 mg/kg, 5-minute IV infusion, geometric mean): 17.1 mL/min
- CL renal ([1]; male, males, 0.06 mg/kg, 5-minute IV infusion, geometric mean): 18.4 mL/min
- CL renal ([1]; male, males, 0.09 mg/kg, 5-minute IV infusion, geometric mean): 20.5 mL/min
- CL renal ([1]; male, males, 0.24 mg/kg, 1 hour IV infusion, geometric mean): 22 mL/min
- dose excreted ([1]; male, 0.03 mg/kg, males, 0.03 mg/kg, 5-minute IV infusion, geometric mean, read-out: fe0-24 h): 3.6%
- dose excreted ([1]; male, 0.06 mg/kg, males, 0.06 mg/kg, 5-minute IV infusion, geometric mean, read-out: fe0-24 h): 3.33%
- dose excreted ([1]; male, 0.09 mg/kg, males, 0.09 mg/kg, 5-minute IV infusion, geometric mean, read-out: fe0-24 h): 3.56%
- dose excreted ([1]; male, 0.24 mg/kg, males, 0.24 mg/kg, 1 hour IV infusion, geometric mean, read-out: fe0-24 h): 3.5%
- dose excreted ([1]; male, males, 1-hour infusion, Parts A & B, read-out: fe0-24 h, geometric least squares mean): 3.46%
- dose excreted ([1]; male, males, 5-minute infusion, Parts A & B, read-out: fe0-24 h, geometric least squares mean): 3.48%
- dose excreted ([1]; male, males, all dose levels, 5-minute infusion, up to 24 hours post-dose, read-out: Fraction of the dose excreted in the urine as unchanged drug): ~3.5%
- fe0-24 h, ratio of geometric least squares means 5-minute:1-hour ([1]; males): 1.01
- Ae0-24 h ([1]; males, 0.03 mg/kg, 5-minute IV infusion, geometric mean): 70.0 µg
- Ae0-24 h ([1]; males, 0.06 mg/kg, 5-minute IV infusion, geometric mean): 157 µg
- Ae0-24 h ([1]; males, 0.09 mg/kg, 5-minute IV infusion, geometric mean): 262 µg
- Ae0-24 h ([1]; males, 0.24 mg/kg, 1 hour IV infusion, geometric mean): 631 µg
- Fluid balance (urine excreted-fluid consumed) ([2]; 0 to 24 hour after start of infusion): no apparent treatment or dose related trends
- 12-lead ECG evaluations ([2]; Parts A and B): no treatment related trends, significant clinical changes, or abnormalities in the morphology of the 12 lead ECG
- Creatinine clearance estimated from serum creatinine ([2]; Parts A and B): no clinically important changes
- Supine and standing blood pressure, pulse rate, oral body temperature ([2]; Parts A and B): no treatment or dose related trends
- Severe or serious adverse events ([2]; all 54 subjects, all dose levels): no severe or serious adverse events
- QTc interval (Bazett's and Friedericia's corrected) ([2]; each dose level, male and female subjects): no evidence of prolongation of QTc interval
- CNS symptoms (hallucinations or dysphoria) ([2]; even at the highest dose levels): no signs of the more typical CNS symptoms
- Volume of urine excreted compared to placebo ([2]; first 4 hours after start of infusion, each dose level, male and female, Parts A and B): increase
- Clinical laboratory evaluations (serum biochemistry, hematology, urinalysis) ([2]; human, in vivo): no treatment related trends or significant clinical findings
- Physical examination ([2]; human, in vivo): no treatment related findings

Source: patent publication US8217000B2, “Method for elevating prolactin in mammals” (Cara Therapeutics, Inc., priority 2006, dated 2012)
